Publication PMC8868400, “Structure–Activity Relationships and Transcriptomic Analysis of Hypoxia-Inducible Factor Prolyl Hydroxylase Inhibitors” (Antioxidants, 2022)
pIC50, pKd: −log10 of the molar value. Values joined by “and” are separate entries in the source; they are usually repeats but may differ in a detail not shown here. Equal entries are not always repeated. “Also recorded” adds a separate entry of the source. Where two headings read alike, the source gives them in different places.

Legend:
[1] = test system: HIF1 ODD-luc reporter (intracellular HIF PHD), HIF1 ODD-luc/SH-SY5Y cell line; test: HIF1 ODD-luc reporter assay; format: cell-based, human; conditions: for Potency in HIF1 ODD-luc reporter assay (in words, comparative) / pIC50: SH-SY5Y, 3 h incubation; for pIC50: read-out: IC50 of HIF1 ODD-luc reporter activation; for Interference of free iron with reporter activation: cells loaded with ferrous sulfate 20 min before drug
Method: The reporter assay on the HIF1 ODD-luc/SH-SY5Y cell line was performed as described in [10]. Drugs were freshly prepared as 10 mM stock solutions in DMSO, and right before the experiment were diluted to 50×-fold to the final concentration in the well, so each well with 100 μL medium was inoculated with 2 μL of the drug solution. Cells were incubated for 3 h and then lysed and assayed for luciferase activity. To evaluate the effect of iron, the cells were loaded with the corresponding concentrations of ferrous sulfate in the medium for 20 min before the drug’s addition. All experiments were performed in triplicate. The fold activation with respect to the background luminescence in the presence 2 μL DMSO aliquot was plotted against drug concentrations. The results are shown as average ± SD.
The HIF1 ODD-luc reporter assay employs a cell line stably expressing a reporter vector providing the continuous production of an oxygen-dependent domain of HIF1α fused via its C-terminus to N-terminus of firefly luciferase. The steady-state level of the fusion protein depends on the ratio of the rates of its production (pcmv promoter) and degradation upon hydroxylation, binding to VHL and proteasomal degradation. […] Enzyme inhibition results in an immediate response in the form of luciferase fusion accumulation. The performance of the fusion reporter is equivalent to monitoring the actual fate of intracellular HIFs upon enzyme inhibition. […] However, both vadadustat and roxadustat worked in a very high micromolar range (IC50 above 30 μM). […] The use of high concentrations of the αKG mimetic drugs to overcome the competition from the intracellular αKG may result in targeting other αKG-dependent pathways that are unrelated to αKG-dependent dioxygenases, such as kynurenine-oxoglutarate transaminase and αKG dehydrogenase E1. In fact, DMOG is known to inhibit the αKG dehydrogenase complex and oxygen consumption by mitochondria. This plausible break in specificity could be a reason for concerns on the safety of HIF PHD inhibitor drugs in comparison with the use of recombinant EPO [17].

SH-SY5Y cells [2] = test: Oxygen-glucose deprivation (OGD) model, MTT viability; format: cell-based, human; conditions: 24 h pretreatment
Method: (§1) For oxygen-glucose deprivation (OGD) studies, 40,000 SH-SY5Y cells were plated in each well of 96-well plates. After overnight incubation, cells were treated with 1 and 3 μM concentrations of drugs for 24 h prior to OGD, at the onset of OGD, and at the onset of reperfusion. The compounds’ toxicity at the 1, 5, and 8 μM concentrations was assessed at 48 h. Oxygen glucose deprivation was performed as follows. The medium was replaced with DMEM containing no glucose, and then the cells were transferred to a sealed hypoxic chamber with 5% CO2-95% N2 atmosphere for 2 h. After 2 h incubation, the cells were removed from the hypoxic chamber and resupplied with a regular growth media for reperfusion/recovery. After 24 h incubation, cell viability was quantified using an MTT (4,5-dimethylthiazol-2-yl)-2,5-diphenyltetrazolium bromide, Sigma) assay.
The oxygen deprivation model (OGD) was performed using the human neuroblastoma SH-SY5Y cell line. […] The branched oxyquinoline drugs were added either 24 h before the onset of OGD, at the onset of ischemia induced by OGD insult, or with the reperfusion media at the end of OGD, as described in Methods and shown in Figure 6a.

SH-SY5Y cell line = test: Transcriptomic microarray analysis (Gene Chip Human Transcriptome Array 2.0); format: cell-based; conditions: for Number of downregulated genes / Number of upregulated genes: 0.5 mM DMOG, 30 μM roxadustat, 2 μM oxyquinolines; for Downregulated genes in common with hypoxia / Upregulated genes in common with hypoxia: hypoxia 2 h + 5 h; for Suppression of ATF4 signaling pathway: heatmap
Method: Transcriptomic microanalysis was performed as described in [12]. The human neuroblastoma SH-SY5Y cell line was grown on DMEM/F12 (Paneco Ltd., Moscow, Russia) containing 10% FBS (Thermo Fisher Scientific Inc., Waltham, MA, USA), and the cells were plated in 6-well plates (TPP, Russia) at a cell/well density of 500,000 the day before the drug treatment. The drugs—2 μM oxyquinoline(s), 30 μM (roxadustat), and 0.5 mM DMOG—were added to the cells in triplicate, and the cells were incubated for 5 h. The control wells contained 4 μL DMSO. The hypoxic conditions were created by incubation in 1% O2, 5% CO2, and 94% N2 atmosphere for 2 h (the medium was incubated under the same conditions for 16 h before addition to the cells). After 2 h hypoxia, the cells were returned to the original incubation conditions in a CO2 incubator and kept for another 5 h. After incubation, the cells were lysed with the Qiazol reagent (Qiagen N.V., Venlo, The Netherlands). The RNA was isolated using the RNeasy Micro Kit (Qiagen); the qualitative and quantitative analysis of the RNA was performed as described earlier. The RNA integrity number (RIN) values for all the samples were above 9.5. All steps of the sample preparation, hybridization, washing, staining, and microchip scanning were performed as described before. The mRNA expression profile was analyzed using the Gene Chip Human Transcriptome Array 2.0 (Thermo Fisher Scientific Inc., Waltham, MA, USA). The CEL files obtained during microchip scanning were treated with the Transcriptome Analysis Console 2.0 application (Thermo Fisher Scientific-Affymetrix, Santa Clara, CA, USA). Unannotated probe sets were excluded from the analysis. The results obtained were statistically processed using the TAC 4.0 software (Thermo Fisher Scientific). The statistical reliability for the differences in the expression levels between the intact cells and cells treated with the studied compounds was evaluated using the monofactorial analysis of variance (ANOVA) with the Benjamini–Hochberg correction. The significance threshold was 0.05.

[3] = design: method as in PMID 20416509; conditions: estimated; read-out: KD of iron chelation; cited from earlier work
SH-SY5Y cells [4] = test: Compound toxicity at 48 h incubation without OGD; format: cell-based, human; conditions: 8 μM
Method: as §1

[5] = 5 h treatment, 1.5-fold cut-off
[6] = 5 h treatment, 1.5-fold cut-off, listed as 570-0720
[7] = 5 h treatment, 1.5-fold cut-off, listed as FG

SMILES: Cc1ccnc(NC(c2ccc(C(C)(C)C)cc2)c2cc(Cl)c3cccnc3c2O)c1 (stereo not shown) [5-chloro-neuradapt]
- Potency in HIF1 ODD-luc reporter assay (in words, comparative) [1]: almost as active as the original compound

SMILES: Cc1ccnc(NC(c2ccc(C(C)(C)C)cc2)c2ccc3cccnc3c2O)c1 (stereo not shown) [4896-3212]
- pIC50 ([1]; Homo sapiens, 3 h): 6.00
- Potency in HIF1 ODD-luc reporter assay (in words, comparative) [1]: submicromolar IC50 values
- pIC50 [1]: > 6.00
- Interference of free iron with reporter activation [1]: interference of free iron with the reporter activation

SMILES: Cc1ccnc(NC(c2ccc(C(C)C)cc2)c2ccc3cccnc3c2O)c1 (stereo not shown) [4896-3249]
- viability at 3 µM (SH-SY5Y cells [2]; Homo sapiens, SH-SY5Y, 3 μM, insult alone 70%, MTT after 24 h recovery, read-out: Cell viability after OGD): 90%
- Downregulated genes in common with 570-0720 (SH-SY5Y cell line; [5]): 231 genes
- Downregulated genes in common with DMOG (SH-SY5Y cell line; [5]): 52 genes
- Downregulated genes in common with FG (roxadustat) (SH-SY5Y cell line; [5]): 73 genes
- Upregulated genes in common with 570-0720 (SH-SY5Y cell line; [5]): 524 genes
- Upregulated genes in common with DMOG (SH-SY5Y cell line; [5]): 188 genes
- Upregulated genes in common with FG (roxadustat) (SH-SY5Y cell line; [5]): 257 genes
- Number of downregulated genes (SH-SY5Y cell line; [5]): 386 genes
- Number of upregulated genes (SH-SY5Y cell line; [5]): 1092 genes
- Downregulated genes in common with hypoxia (SH-SY5Y cell line; [5]): 31 genes
- Upregulated genes in common with hypoxia (SH-SY5Y cell line; [5]): 152 genes
- Suppression of ATF4 signaling pathway (SH-SY5Y cell line; 5 h treatment): inhibits several pro-death pathways with ATF4 being one of them; also recorded: enhanced suppression
- pIC50 ([1]; Homo sapiens, 3 h): 6.00
- Potency in HIF1 ODD-luc reporter assay (in words, comparative) [1]: equally active

SMILES: Cc1ccc2ccc(C(Nc3ccccn3)c3ccc(C(C)C)cc3)c(O)c2n1 (stereo not shown) [5704-0720]
- Reduction in number of genes overlapped with roxadustat in comparison to isopropyl-neuradapt (SH-SY5Y cell line; 2 μM, 5 h): ~20%
- Downregulated genes in common with DMOG (SH-SY5Y cell line; [5]): 38 genes
- Downregulated genes in common with FG (roxadustat) (SH-SY5Y cell line; [5]): 60 genes
- Upregulated genes in common with DMOG (SH-SY5Y cell line; [5]): 126 genes
- Upregulated genes in common with FG (roxadustat) (SH-SY5Y cell line; [5]): 195 genes
- Number of downregulated genes (SH-SY5Y cell line; [5]): 200–260 genes
- Number of upregulated genes (SH-SY5Y cell line; [5]): 600–700 genes
- Number of downregulated genes (SH-SY5Y cell line; [6]): 259 genes
- Number of upregulated genes (SH-SY5Y cell line; [6]): 600 genes
- Downregulated genes in common with hypoxia (SH-SY5Y cell line; [5]): 17 genes
- Upregulated genes in common with hypoxia (SH-SY5Y cell line; [5]): 86 genes
- Suppression of ATF4 signaling pathway (SH-SY5Y cell line; 5 h treatment): no suppression; also recorded: inactive
- pIC50 ([1]; Homo sapiens, 3 h): 5.70
- Potency in HIF1 ODD-luc reporter assay (in words, comparative) [1]: ca. two-fold less potent

SMILES: COC(=O)CNC(=O)C(=O)OC [DMOG, dimethyl oxalylglycine, reference compound]
- Overlap of downregulated genes for the couple roxadustat and DMOG (SH-SY5Y cell line; 5 h treatment): 80%
- Share of downregulated genes overlapping with hypoxia (SH-SY5Y cell line; 5 h treatment): ~50%
- Share of upregulated genes overlapping with those induced by hypoxia (SH-SY5Y cell line; 5 h treatment): More than 30%
- Downregulated genes in common with FG (roxadustat) (SH-SY5Y cell line; [5]): 160 genes
- Upregulated genes in common with FG (roxadustat) (SH-SY5Y cell line; [5]): 476 genes
- Number of downregulated genes (SH-SY5Y cell line; [5]): 200–260 genes and 204 genes
- Number of upregulated genes (SH-SY5Y cell line; [5]): 600–700 genes and 608 genes
- Downregulated genes in common with hypoxia (SH-SY5Y cell line; [5]): 104 genes
- Upregulated genes in common with hypoxia (SH-SY5Y cell line; [5]): 279 genes
- Suppression of ATF4 signaling pathway (SH-SY5Y cell line; 5 h treatment): weaker
- Potency in HIF1 ODD-luc reporter assay (in words, comparative) [1]: millimolar potency
- pIC50 [1]: 3.30

SMILES: Oc1cccnc1NC(c1ccc(Cl)cc1)c1ccc2cccnc2c1O (stereo not shown) [adaptaquin, reference compound]
- Neuroprotection in OGD (SH-SY5Y cells [2]; 1–3 μM): 20–30%

SMILES: Cc1cc(C2CCCCC2)n(O)c(=O)c1 [ciclopirox]
- pKd [3]: 7.30

SMILES: Cc1ccc2ccc(C(Nc3ccccn3)c3ccc(C(C)C)cc3)c(O)c2n1 (stereo not shown) [compound 7]
- Toxicity at prolonged incubation (SH-SY5Y cells [4]): least toxic

SMILES: Cc1ccnc(NC(c2ccc(C(C)(C)C)cc2)c2cc(Cl)c3cccnc3c2O)c1 (stereo not shown) [compound 8]
- Toxicity at prolonged incubation (SH-SY5Y cells [4]): least toxic

SMILES: Cc1nc(C(=O)NCC(=O)O)c(O)c2ccc(Oc3ccccc3)cc12 [roxadustat, reference compound]
- Overlap of downregulated genes for the couple roxadustat and DMOG (SH-SY5Y cell line; 5 h treatment): 80%
- Share of downregulated genes overlapping with hypoxia (SH-SY5Y cell line; 5 h treatment): ~50%
- Share of upregulated genes overlapping with those induced by hypoxia (SH-SY5Y cell line; 5 h treatment): More than 30%
- Number of downregulated genes (SH-SY5Y cell line; [5]): 200–260 genes
- Number of upregulated genes (SH-SY5Y cell line; [5]): 600–700 genes
- Number of downregulated genes (SH-SY5Y cell line; [7]): 209 genes
- Number of upregulated genes (SH-SY5Y cell line; [7]): 714 genes
- Downregulated genes in common with hypoxia (SH-SY5Y cell line; [5]): 96 genes
- Upregulated genes in common with hypoxia (SH-SY5Y cell line; [5]): 261 genes
- Suppression of ATF4 signaling pathway (SH-SY5Y cell line; 5 h treatment): weaker
- pIC50 ([1]; Homo sapiens, 3 h): < 4.52
- pIC50 ([1]; listed as Roxadustat): ~4.60
- pIC50 [1]: 4.52
- Interference of free iron with reporter activation [1]: not observed

SMILES: O=C(O)CNC(=O)c1ncc(-c2cccc(Cl)c2)cc1O [vadadustat, reference compound]
- pIC50 ([1]; Homo sapiens, 3 h): < 4.52
